Measured values from patent US8765735B2, “Isoxazolines as inhibitors of fatty acid amide hydrolase” (Infinity Pharmaceuticals, Inc., priority 2009, dated 2014).

These molecules were tested against T1, human FAAH (Homo sapiens, UniProt O00519) (assay: Inhibition of human FAAH (fluorescence assay, AMC arachidonoyl amide substrate)). Conditions: solubilized human FAAH from transfected COS-7 cells; 30 min preincubation; 20 μM AMC-arachidonoyl amide; 4 h at room temperature.
T1 construct: host or cells: COS-7 cells, transient transfection; 13,000 g membrane fraction solubilised in 1% Triton X-100
T1 sequence (O00519 1-579): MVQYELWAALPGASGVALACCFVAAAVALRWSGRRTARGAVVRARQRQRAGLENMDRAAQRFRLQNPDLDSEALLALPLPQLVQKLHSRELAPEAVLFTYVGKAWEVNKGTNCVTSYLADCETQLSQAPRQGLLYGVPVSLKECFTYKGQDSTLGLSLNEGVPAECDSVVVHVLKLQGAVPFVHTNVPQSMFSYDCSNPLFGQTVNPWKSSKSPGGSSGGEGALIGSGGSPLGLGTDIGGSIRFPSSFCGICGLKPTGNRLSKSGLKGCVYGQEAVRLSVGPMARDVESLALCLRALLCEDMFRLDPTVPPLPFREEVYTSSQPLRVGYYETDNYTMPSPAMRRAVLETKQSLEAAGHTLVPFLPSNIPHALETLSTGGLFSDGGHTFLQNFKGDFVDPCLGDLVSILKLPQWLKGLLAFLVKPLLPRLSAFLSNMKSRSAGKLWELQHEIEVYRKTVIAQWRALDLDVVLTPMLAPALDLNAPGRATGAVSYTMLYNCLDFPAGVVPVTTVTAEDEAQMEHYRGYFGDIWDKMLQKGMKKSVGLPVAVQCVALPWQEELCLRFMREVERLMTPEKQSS
Format: biochemical
Procedure: Human FAAH Preparation: COS-7 cells were split the day before, 1:5 into 150 mm×25 mm cell culture dishes (Corning Inc., Cat. No. 430599). Transient transfection took place at 30-40% confluency according to FuGENE 6 Transfection Reagent (Roche, Cat. No. 11814 443 001).
Transfection Procedure: The FuGENE transfection 6 reagent (45 uL) was added to 1410 μL of media (DMEM, serum free without pen/strep) in a 15 mL conical tube and incubated at room temp for 5 minutes, followed by the addition of FAAH plasmid DNA (15 μg) (OriGene Cat. No. TC119221, Genbank Accession No. NM_001441.1, 0.67 ug/uL) and a further incubation of 15 minutes at room temperature. The resulting solution was added into one dish of 30-40% confluent COS-7 cells in a drop-wise manner. The COS-7 cell dish was subsequently incubated for 48 hours. The cells are then harvested.
Harvest procedure: Media was aspirated from the dishes and the cells rinsed with 10 mL PBS. The PBS was removed and 3 mL of PBS added to the dish. The dish was scraped to resuspend the cells, and the subsequent cell suspension collected into a 15 mL conical tube. The cells were pelleted by centrifugation at 1200 rpm for 5 minutes in a bench top centrifuge. PBS was removed and the cell pellet snap frozen in liquid nitrogen and stored at −80° C.
COS-7 cells—FAAH purification: • (1) Fractionation: Frozen cell pellets from transient transfections were thawed on ice and resuspended in 12.5 mM Hepes pH 8.0, 100 mM NaCl, 1 mM EDTA (10 mL/0.2 g cell pellet). The pellets were dounce homogenized and then sonicated to produce cell extract. The cell extract was subsequently centrifuged at 1000 g to remove cellular debris. The pellet was discarded and the supernatant centrifuged at 13,000 g for 20 minutes. The pellet contained membrane bound FAAH. The supernatant was discarded and the pellet resolubilized. • (2) Re-solubilization: The fraction of interest, (13,000 g, membrane fraction) was re-suspended in 2.3 mL re-suspension buffer (20 mM Hepes pH 7.8, 10% v/v Glycerol, 1 mM EDTA, 1% Triton X-100) and the sample incubated on ice for 1 hour and then centrifuged to remove any particulate matter. The supernatant containing solubilized human FAAH was aliquoted and snap frozen in liquid nitrogen and stored at 80° C. until use. • (3) Characterization: Protein Concentration determined by Bradford assay. • SDS gel and Western blot to confirm presence of FAAH • FAAH activity assay • Km determination—96-well assay • Linear dependence—96-well assay • Standard compound Ki determination—384-well assay
Human FAAH assay; Experimental Protocol: A 0.1 mg/mL Human FAAH solution was made up in FAAH reaction buffer, and 24 ul pipeted into a 384 well plate. To this was added 1 μL of a 3 fold serially diluted inhibitor from a DMSO stock solution. The FAAH solution and inhibitor were incubated for 30 minutes at room temperature. The FAAH reaction was initiated by the addition of 25 μL of 40 μM AMC Arachidonoyl Amide in FAAH reaction buffer, yielding a final reaction human FAAH preparation concentration of 0.05 mg/ml and AMC-Arachidonoyl substrate concentration of 20 μM, reaction volume 50 μL. The reaction was allowed to proceed for 4 hours at room temperature. The reaction was stopped by the addition of 25 μL 12 μM a-ketoheterocycle (Cayman Chemicals, catalogue #10435). The microtiter plate was read in the envision plate reader.
The raw fluorescence was plotted on the y axis and the inhibitor concentration on the x axis to give a dose response inhibition curve. The data was fitted to a single site competitive inhibition equation, fixing the Km for the human enzyme to 12 μM and 9 μM respectively.

| SMILES | Ki [nM] |
| --- | --- |
| O=C(OCc1ccccc1)N1CC2ON=C(Br)C2C1 (centres unmarked) [III-44] | ≤ 100 |
| Clc1ccc(CN2CC3ON=C(Br)C3C2)cc1 (centres unmarked) [III-45] | ≥ 1000 |
| O=C(OCc1ccccc1)N1CCC2(CC1)CC(Oc1cccnc1)=NO2 [III-46] | ≤ 100 |
| CC(C)(C)OC(=O)N1CCC2(CC1)CC(Cl)=NO2 [III-47] | ≤ 100 |
| ClC1=NOC2(CCN(Cc3ccc(Cl)cc3)CC2)C1 [III-48] | ≤ 100 |
| C#Cc1ccc(CN2CCC3(CC2)CC(Br)=NO3)cc1 [III-49] | ≤ 100 |
| C#Cc1ccc(CN2CCC3(CC2)CC(Oc2cccnc2)=NO3)cc1 [III-50] | ≤ 100 |
| Clc1ccc(CN2CCC3(CC2)CC(Oc2cccnc2)=NO3)cc1 [III-51] | ≤ 100 |
| Clc1ccc(CN2CCC3(CC2)CC(Oc2cncnc2)=NO3)cc1 [III-52] | ≤ 100 |
| O=C(CCc1ccccc1)N1CCC2(CC1)CC(Oc1cncnc1)=NO2 [III-54] | 100 to 1000 |
| O=C(c1ccc(Cl)cc1)N1CCC2(CC1)CC(Oc1cncnc1)=NO2 [III-55] | ≤ 100 |
| O=C(Nc1ccccc1)N1CCC2(CC1)CC(Oc1cncnc1)=NO2 [III-56] | ≥ 1000 |
| O=C(CCCC(F)(F)F)N1CCC2(CC1)CC(Oc1cncnc1)=NO2 [III-57] | ≥ 1000 |
| CS(=O)(=O)c1ccc(OC2=NOC3(CCN(C(=O)c4ccccc4)CC3)C2)cn1 [III-58] | 100 to 1000 |
| O=C(OCc1ccccc1)N1CCC2(CC1)CC(N1CCCC1)=NO2 [III-59] | ≥ 1000 |
| C[N+]1(C2=NOC3(CCN(C(=O)OCc4ccccc4)CC3)C2)CCCC1 [III-60] | ≥ 1000 |

| SMILES | Ki [nM] |
| --- | --- |
| BrC1=NO[C@]2(CCCc3cc(Oc4ccccc4)ccc32)C1 [III-62a] | ≤ 100 |
| BrC1=NO[C@@]2(CCCc3cc(Oc4ccccc4)ccc32)C1 [III-62b] | ≤ 100 |
| BrC1=NO[C@]2(CCc3cc(Oc4ccccc4)ccc32)C1 [III-63a] | ≤ 100 |
| BrC1=NO[C@@]2(CCc3cc(Oc4ccccc4)ccc32)C1 [III-63b] | ≤ 100 |
| FC(F)(F)Oc1ccc2c(c1)CC[C@@]21CC(Br)=NO1 [III-66a] | ≤ 100 |
| FC(F)(F)Oc1ccc2c(c1)CC[C@]21CC(Br)=NO1 [III-66b] | ≤ 100 |
| CSc1ccc(OC2=NO[C@]3(CCc4cc(OC(F)(F)F)ccc43)C2)cn1 [III-67a] | ≤ 100 |
| CSc1ccc(OC2=NO[C@@]3(CCc4cc(OC(F)(F)F)ccc43)C2)cn1 [III-67b] | ≤ 100 |
| CS(=O)(=O)c1ccc(OC2=NO[C@]3(CCc4cc(OC(F)(F)F)ccc43)C2)cn1 [III-68a] | ≤ 100 |
| CS(=O)(=O)c1ccc(OC2=NO[C@@]3(CCc4cc(OC(F)(F)F)ccc43)C2)cn1 [III-68b] | ≤ 100 |
| Cn1cc(-c2ccc(OC3=NO[C@]4(CCc5cc(OC(F)(F)F)ccc54)C3)cn2)cn1 [III-70a] | ≤ 100 |
| Cn1nccc1-c1ccc(OC2=NO[C@]3(CCc4cc(OC(F)(F)F)ccc43)C2)cn1 [III-71a] | ≤ 100 |
| Cn1nccc1-c1ccc(OC2=NO[C@@]3(CCc4cc(OC(F)(F)F)ccc43)C2)cn1 [III-71b] | ≤ 100 |
| FC(F)(F)Oc1ccc2c(c1)CC[C@@]21CC(Oc2cncc(-c3nnco3)c2)=NO1 [III-73a] | ≤ 100 |
| FC(F)(F)Oc1ccc2c(c1)CC[C@]21CC(Oc2cncc(-c3nnco3)c2)=NO1 [III-73b] | ≤ 100 |
| O=C(O)c1ccc(OC2=NO[C@@]3(CCc4cc(OC(F)(F)F)ccc43)C2)cn1 [III-74b] | ≤ 100 |
